According to patent US12415803B2, “Fused imidazopyridines as reversible inhibitors of Brutons Tyrosine Kinase (BTK)” (Merck Patent GmbH, priority 2018, dated 2025):

How the values were obtained:
full-length human BTK = full-length human BTK (Homo sapiens (Human), UniProt Q06187); experiment: BTK IC50 Enzyme Assay (microfluidic off-chip mobility shift kinase assay); assay type: biochemical; conditions: Btk Enzymatic IC50 Assay, 90 min at 27 C;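 further: Read-out separates phosphorylated peptide product from substrate by their charge-to-mass difference, with IC50 fitted from log inhibitor concentration against percent enzyme activity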
Sequence of full-length human BTK (Q06187 whole entry): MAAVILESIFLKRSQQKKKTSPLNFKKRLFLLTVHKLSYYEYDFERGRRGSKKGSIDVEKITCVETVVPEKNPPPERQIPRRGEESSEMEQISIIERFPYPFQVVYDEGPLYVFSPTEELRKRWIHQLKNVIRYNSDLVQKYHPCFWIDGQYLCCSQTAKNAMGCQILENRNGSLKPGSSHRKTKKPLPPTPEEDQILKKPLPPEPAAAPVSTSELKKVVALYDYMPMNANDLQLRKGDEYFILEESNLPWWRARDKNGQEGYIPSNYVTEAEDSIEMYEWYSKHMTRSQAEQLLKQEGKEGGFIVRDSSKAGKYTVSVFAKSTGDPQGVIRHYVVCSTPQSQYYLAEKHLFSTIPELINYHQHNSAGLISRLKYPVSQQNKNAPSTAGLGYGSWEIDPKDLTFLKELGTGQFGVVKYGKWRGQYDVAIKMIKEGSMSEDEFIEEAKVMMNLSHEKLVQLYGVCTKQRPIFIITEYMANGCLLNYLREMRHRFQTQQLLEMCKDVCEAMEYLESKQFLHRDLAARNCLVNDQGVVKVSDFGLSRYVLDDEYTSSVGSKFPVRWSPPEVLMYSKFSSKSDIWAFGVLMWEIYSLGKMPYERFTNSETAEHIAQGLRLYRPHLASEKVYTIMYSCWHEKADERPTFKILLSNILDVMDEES

Btk = Btk (Homo sapiens (Human), UniProt Q06187); experiment: Btk PBMC IC50 Cell Assay (anti-IgM-induced CD69 expression on B cells); assay type: cell-based; conditions: anti-IgM-induced CD69 expression on CD19 positive cells in human PBMCs;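 further: freshly isolated human PBMCs, IC50 from concentration-response of the share of CD19+ cells expressing CD69 after anti-IgM BCR stimulation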
Sequence of Btk (Q06187 whole entry): as above

SMILES | IC50 (full-length human BTK) [nM] | IC50 (Btk) [nM]
Cc1c(-c2nc3c(-c4ccc5c(c4)CCCCC5NC(=O)c4noc(C(C)(C)C)n4)ccnc3[nH]2)cnn1C(C)C (centres unmarked) [Compound 20, 5-tert-Butyl-[1,2,4]oxadiazole-3-carboxylic acid {2-[2-(1-isopropyl-5-methyl-1H-pyrazol-4-yl)-3H-imidazo[4,5-b]pyridin-7-yl]-6,7,8,9-tetrahydro-5H-benzocyclohepten-5-yl}-amide] | < 1 | 1 to 10
CC(C)n1cc(-c2nc3nccc(-c4ccc5c(c4)CCCC[C@H]5NC(=O)c4nc(C(C)(C)C)no4)c3[nH]2)cn1 [Compound 82] | < 1 | < 1
Cc1nn(C(C)C)c(C)c1-c1nc2c(-c3ccc4c(c3)CCCC[C@@H]4NC(=O)c3noc(C4(C)CC4)n3)ccnc2[nH]1 [Compound 34, 5-(1-Methyl-cyclopropyl)-[1,2,4]oxadiazole-3-carboxylic acid {(S)-2-[2-(1-isopropyl-3,5-dimethyl-1H-pyrazol-4-yl)-3H-imidazo[4,5-b]pyridin-7-yl]-6,7,8,9-tetrahydro-5H-benzocyclohepten-5-yl}-amide] | 1 to 10 | > 100
Cc1c(-c2nc3c(-c4ccc5c(c4)CCC[C@H]5NC(=O)N4CC(OC(C)(C)C)C4)ccnc3[nH]2)cnn1C1CCOCC1 [Compound 158, 3-tert-Butoxy-azetidine-1-carboxylic acid ((R)-6-{2-[5-methyl-1-(tetrahydro-pyran-4-yl)-1H-pyrazol-4-yl]-3H-imidazo[4,5-tetrahydro-naphthalen-1-b]pyridin-7-yl}-1,2,3,4-tetrahydro-naphthalen-1-yl)-amide] | 1 to 10 | 1 to 10
Cn1cc(-c2nc3c(-c4ccc5c(c4)CCCC[C@@H]5NC(=O)c4noc(C(C)(C)C)n4)ccnc3[nH]2)cn1 [Compound 53, 5-tert-Butyl-[1,2,4]oxadiazole-3-carboxylic acid {(S)-2-[2-(1-methyl-1H-pyrazol-4-yl)-3H-imidazo[4,5-b]pyridin-7-yl]-6,7,8,9-tetrahydro-5H-benzocyclohepten-5-yl}-amid] | 1 to 10 | 10 to 100
Cc1c(-c2nc3c(-c4ccc5c(c4)CCCC[C@@H]5NC(=O)c4nc(C5(C)CC5)no4)ccnc3[nH]2)cnn1C(C)C [Compound 28, 3-(1-Methyl-cyclopropyl)-[1,2,4]oxadiazole-5-carboxylic acid {(S)-2-[2-(1-isopropyl-5-methyl-1H-pyrazol-4-yl)-3H-imidazo[4,5-b]pyridin-7-yl]-6,7,8,9-tetrahydro-5H-benzocyclohepten-5-yl}-amide] | > 100 | > 100
Cn1cc(-c2nc3c(-c4ccc5c(c4)OCCC[C@H]5NC(=O)c4nc(C(C)(C)C)no4)ccnc3[nH]2)cn1 [Compound 44, 3-tert-Butyl-[1,2,4]oxadiazole-5-carboxylic acid {(R)-8-[2-(1-methyl-1H-pyrazol-4-yl)-3H-imidazo[4,5-b]pyridin-7-yl]-2,3,4,5-tetrahydro-benzo[b]oxepin-5-yl}-amide] | 1 to 10 | 10 to 100
Cc1c(-c2nc3c(-c4ccc5c(c4)CCCC[C@H]5NC(=O)c4nc(C5(C)CC5)no4)ccnc3[nH]2)cnn1C(C)C [Compound 27, 3-(1-Methyl-cyclopropyl)-[1,2,4]oxadiazole-5-carboxylic acid {(R)-2-[2-(1-isopropyl-5-methyl-1H-pyrazol-4-yl)-3H-imidazo[4,5-b]pyridin-7-yl]-6,7,8,9-tetrahydro-5H-benzocyclohepten-5-yl}-amide] | < 1 | 1 to 10
CC(C)(C)c1noc(C(=O)N[C@@H]2CCCc3cc(-c4ccnc5[nH]c(-c6cnn(C7CC7)c6)nc45)ccc32)n1 [Compound 75, 3-tert-butyl-N-[(1R)-6-[2-(1-cyclopropyl-1H-pyrazol-4-yl)-3H-imidazo[4,5-b]pyridin-7-yl]-1,2,3,4-tetrahydronaphthalen-1-yl]-1,2,4-oxadiazole-5-carboxamide] | < 1 | 1 to 10
Cc1nn(C)c(C)c1-c1nc2c(-c3ccc4c(c3)CCCC[C@@H]4NC(=O)c3nnc(C(C)(C)C)o3)ccnc2[nH]1 [Compound 122, 5-tert-Butyl-[1,3,4]oxadiazole-2-carboxylic acid {(S)-2-[2-(1,3,5-trimethyl-1H-pyrazol-4-yl)-3H-imidazo[4,5-b]pyridin-7-yl]-6,7,8,9-tetrahydro-5H-benzocyclohepten-5-yl}-amide] | 1 to 10 | > 100
Cn1cc(-c2nc3c(-c4ccc5c(c4)CCCC[C@@H]5NC(=O)c4nnc(C(C)(C)C)o4)ccnc3[nH]2)cn1 [Compound 49, 5-tert-Butyl-[1,3,4]oxadiazole-2-carboxylic acid {(S)-2-[2-(1-methyl-1H-pyrazol-4-yl)-3H-imidazo[4,5-b]pyridin-7-yl]-6,7,8,9-tetrahydro-5H-benzocyclohepten-5-yl}-amide] | < 1 | 1 to 10
Cn1cc(-c2nc3c(-c4ccc5c(c4)OCCC[C@H]5NC(=O)c4noc(C(C)(C)C)n4)ccnc3[nH]2)cn1 [Compound 46, 5-tert-Butyl-[1,2,4]oxadiazole-3-carboxylic acid {(R)-8-[2-(1-methyl-1H-pyrazol-4-yl)-3H-imidazo[4,5-b]pyridin-7-yl]-2,3,4,5-tetrahydro-benzo[b]oxepin-5-yl}-amide] | < 1 | 1 to 10
Cc1nn(C(C)C)cc1-c1nc2nccc(-c3ccc4c(c3)CCCC[C@@H]4NC(=O)c3nnc(C(C)(C)C)o3)c2[nH]1 [Compound 77, 5-tert-butyl-N-[(5S)-2-{2-[3-methyl-1-(propan-2-yl)-1H-pyrazol-4-yl]-1H-imidazo[4,5-b]pyridin-7-yl}-6,7,8,9-tetrahydro-5H-benzo[7]annulen-5-yl]-1,3,4-oxadiazole-2-carboxamide] | 1 to 10 | 10 to 100
Cc1nn(C(C)C)c(C)c1-c1nc2c(-c3ccc4c(c3)CCCC[C@@H]4NC(=O)c3noc(C(C)(C)C)n3)ccnc2[nH]1 [Compound 31, 5-tert-Butyl-[1,2,4]oxadiazole-3-carboxylic acid {(S)-2-[2-(1-isopropyl-3,5-dimethyl-1H-pyrazol-4-yl)-3H-imidazo[4,5-b]pyridin-7-yl]-6,7,8,9-tetrahydro-5H-benzocyclohepten-5-yl}-amide] | 1 to 10 | 10 to 100
Cn1cc(-c2nc3c(-c4ccc5c(c4)CCCCC5NC(=O)c4noc(C5(C)CC5)n4)ccnc3[nH]2)cn1 (centres unmarked) [Compound 40, 5-(1-Methyl-cyclopropyl)-[1,2,4]oxadiazole-3-carboxylic acid {2-[2-(1-methyl-1H-pyrazol-4-yl)-3H-imidazo[4,5-b]pyridin-7-yl]-6,7,8,9-tetrahydro-5H-benzocyclohepten-5-yl}-amide] | < 1 | 1 to 10
Cc1nn(C(C)C)cc1-c1nc2c(-c3ccc4c(c3)CCCC[C@@H]4NC(=O)c3nc(C4(C)CC4)no3)ccnc2[nH]1 [Compound 60, 3-(1-Methyl-cyclopropyl)-[1,2,4]oxadiazole-5-carboxylic acid {(S)-2-[2-(1-isopropyl-3-methyl-1H-pyrazol-4-yl)-3H-imidazo[4,5-b]pyridin-7-yl]-6,7,8,9-tetrahydro-5H-benzocyclohepten-5-yl}-amide] | 1 to 10 | 10 to 100
Cc1nn(C)c(C)c1-c1nc2c(-c3ccc4c(c3)OCCC[C@H]4NC(=O)c3noc(C(C)(C)C)n3)ccnc2[nH]1 [Compound 15, 5-tert-Butyl-[1,2,4]oxadiazole-3-carboxylic acid {(R)-8-[2-(1,3,5-trimethyl-1H-pyrazol-4-yl)-3H-imidazo[4,5-b]pyridin-7-yl]-2,3,4,5-tetrahydro-benzo[b]oxepin-5-yl}-amide] | 1 to 10 | > 100
Cc1c(-c2nc3nccc(-c4ccc5c(c4)CCCC[C@@H]5NC(=O)c4nnc(C(C)(C)C)o4)c3[nH]2)cnn1C1CCOCC1 [Compound 80, 5-tert-butyl-N-[(5S)-2-{2-[5-methyl-1-(oxan-4-yl)-1H-pyrazol-4-yl]-1H-imidazo[4,5-b]pyridin-7-yl}-6,7,8,9-tetrahydro-5H-benzo[7]annulen-5-yl]-1,3,4-oxadiazole-2-carboxamide] | 1 to 10 | > 100
Cc1c(-c2nc3c(-c4ccc5c(c4)CCCC[C@@H]5NC(=O)c4noc(C5(C)CC5)n4)ccnc3[nH]2)cnn1C(C)C [Compound 25, 5-(1-Methyl-cyclopropyl)-[1,2,4]oxadiazole-3-carboxylic acid {(S)-2-[2-(1-isopropyl-5-methyl-1H-pyrazol-4-yl)-3H-imidazo[4,5-b]pyridin-7-yl]-6,7,8,9-tetrahydro-5H-benzocyclohepten-5-yl}-amide] | 1 to 10 | 10 to 100
Cc1nn(C(C)C)c(C)c1-c1nc2c(-c3ccc4c(c3)CCCCC4NC(=O)c3noc(C4(C)CC4)n3)ccnc2[nH]1 (centres unmarked) [Compound 32, 5-(1-Methyl-cyclopropyl)-[1,2,4]oxadiazole-3-carboxylic acid {2-[2-(1-isopropyl-3,5-dimethyl-1H-pyrazol-4-yl)-3H-imidazo[4,5-b]pyridin-7-yl]-6,7,8,9-tetrahydro-5H-benzocyclohepten-5-yl}-amide] | < 1 | 1 to 10
Cc1nn(C)c(C)c1-c1nc2c(-c3ccc4c(c3)OCCC[C@H]4NC(=O)c3nnc(C(C)(C)C)o3)ccnc2[nH]1 [Compound 18, 5-tert-Butyl-[1,3,4]oxadiazole-2-carboxylic acid {(R)-8-[2-(1,3,5-trimethyl-1H-pyrazol-4-yl)-3H-imidazo[4,5-b]pyridin-7-yl]-2,3,4,5-tetrahydro-benzo[b]oxepin-5-yl}-amide] | > 100 | > 100
Cc1nn(C)c(C)c1-c1nc2c(-c3ccc4c(c3)CCCC[C@@H]4NC(=O)c3noc(C(C)(C)C)n3)ccnc2[nH]1 [Compound 10, 5-tert-Butyl-[1,2,4]oxadiazole-3-carboxylic acid {(S)-2-[2-(1,3,5-trimethyl-1H-pyrazol-4-yl)-3H-imidazo[4,5-b]pyridin-7-yl]-6,7,8,9-tetrahydro-5H-benzocyclohepten-5-yl}-amide] | < 1 | 1 to 10
